This is an account of results in ChEMBL document CHEMBL4261554, “Bioisosteric replacement of central 1,2,4-oxadiazole ring of high affinity CB2 ligands by regioisomeric 1,3,4-oxadiazole ring” (Medchemcomm, 2017).

The inhibition is the change of the read-out against control, counted positive when it falls. Usually Ki stands for a measure of affinity in units of concentration, obtained from inhibition or displacement. Read a high Ki as a looser hold on the target.

Assay [1] concerns the target T1, Cannabinoid receptor 2 (Homo sapiens, UniProt P34972). Put plainly: Displacement of [3H]CP55940 from beta-galactosidase reporter fused human CB2 receptor expressed in CHOK1 cell membranes at 1 uM after 1 hr by scintillation spectrometric analysis.
Assay [2] has as its target T2, Cannabinoid receptor 1 (Homo sapiens, UniProt P21554). Description: Displacement of [3H]CP55940 from beta-galactosidase reporter fused human CB1 receptor expressed in CHOK1 cell membranes at 1 uM after 1 hr by scintillation spectrometric analysis relative to control. For orientation: Displacement assays read how much labelled ligand stays bound in the presence of the test substance.

Assay [3] has as its target T1, Cannabinoid receptor 2. Put plainly: Displacement of [3H]CP55940 from beta-galactosidase reporter fused human CB2 receptor expressed in CHOK1 cell membranes after 1 hr by scintillation spectrometric analysis.
For assay [4], the target named is T2, Cannabinoid receptor 1. Put plainly: biochemical.

T2 sequence (P21554 whole entry, the tested form may be a part): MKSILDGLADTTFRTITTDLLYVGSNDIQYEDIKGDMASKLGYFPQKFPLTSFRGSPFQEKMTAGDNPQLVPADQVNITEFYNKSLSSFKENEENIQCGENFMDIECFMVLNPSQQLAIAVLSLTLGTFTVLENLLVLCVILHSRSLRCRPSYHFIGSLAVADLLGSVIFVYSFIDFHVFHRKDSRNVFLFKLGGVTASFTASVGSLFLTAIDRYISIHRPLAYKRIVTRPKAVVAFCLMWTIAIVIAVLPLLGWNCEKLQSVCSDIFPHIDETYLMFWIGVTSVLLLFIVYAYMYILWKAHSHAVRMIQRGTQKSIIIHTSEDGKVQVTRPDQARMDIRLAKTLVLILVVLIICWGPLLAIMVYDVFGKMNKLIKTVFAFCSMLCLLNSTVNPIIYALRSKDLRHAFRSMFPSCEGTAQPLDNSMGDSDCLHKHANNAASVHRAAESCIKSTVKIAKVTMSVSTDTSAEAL
T1 sequence (P34972 whole entry, the tested form may be a part): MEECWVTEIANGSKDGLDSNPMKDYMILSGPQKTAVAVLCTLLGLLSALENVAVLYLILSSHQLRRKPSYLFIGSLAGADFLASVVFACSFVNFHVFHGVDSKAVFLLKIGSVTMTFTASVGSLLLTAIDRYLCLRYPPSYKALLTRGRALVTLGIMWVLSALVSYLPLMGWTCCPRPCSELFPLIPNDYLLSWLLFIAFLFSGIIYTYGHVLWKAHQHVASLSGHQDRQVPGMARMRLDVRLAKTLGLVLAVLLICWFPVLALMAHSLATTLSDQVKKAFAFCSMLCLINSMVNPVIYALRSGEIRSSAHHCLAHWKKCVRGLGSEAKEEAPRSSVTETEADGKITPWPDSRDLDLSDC

On to `O=C(CCc1nnc(-c2ccc(Br)cc2F)o1)Nc1ccc2c(c1)c1ccccc1n2CCO`, for which, on Cannabinoid receptor 2 [1], the inhibition was under 50%.
As for `O=C(CCc1nc(-c2ccc(Br)cc2F)no1)Nc1ccc2c(c1)c1ccccc1n2CCF`, at Cannabinoid receptor 1 [2], the inhibition is -5%.
Consider `O=C(CCc1nnc(-c2ccc(F)cc2Br)o1)Nc1ccc2c(c1)c1ccccc1n2CCF`, for which the inhibition at Cannabinoid receptor 1 [2] is 22%; at Cannabinoid receptor 2 [1], over 50%. This compound came in with an inhibition constant (Ki) on Cannabinoid receptor 2 [3] of 25 nM.
On to `N#Cc1cc(F)ccc1-c1nnc(CCC(=O)Nc2ccc3c(c2)c2ccccc2n3CCO)o1`, for which, on Cannabinoid receptor 2 [1], the inhibition is under 50%.
Take `O=C(CCc1nnc(-c2ccc(F)cc2Br)o1)Nc1ccc2c(c1)c1ccccc1n2CCO`: at Cannabinoid receptor 2 [1], the inhibition is under 50%.
For `N#Cc1cc(F)ccc1-c1nnc(CCC(=O)Nc2ccc3c(c2)c2ccccc2n3CCF)o1`, the inhibition at Cannabinoid receptor 1 [2] was -1%; at Cannabinoid receptor 2 [1] it was over 50%. Further, on Cannabinoid receptor 2 [3], the Ki worked out at 219 nM.
On to `O=C(CCc1nnc(-c2ccc(Br)cc2F)o1)Nc1ccc2c(c1)c1ccccc1n2CCF`, for which the inhibition at Cannabinoid receptor 1 [2] is -8%; at Cannabinoid receptor 2 [1] it was over 50%. The same compound showed an inhibitory constant (Ki) at Cannabinoid receptor 2 [3] of 318 nM.
On to `N#Cc1cc(F)ccc1-c1noc(CCC(=O)Nc2ccc3c(c2)c2ccccc2n3CCF)n1`, for which the inhibition at Cannabinoid receptor 1 [2] was -8%.
For the compound `CCCCCCC(C)(C)c1cc(O)c2c(c1)OC(C)(C)[C@@H]1CC=C(CO)C[C@@H]21`, at Cannabinoid receptor 1 [4], the Ki stood at 9.55 nM. This counts as single-digit nanomolar.
